Legend:
[1] = test system: NCI-H358 cells expressing KRAS G12C mutant protein; experiment: Phospho-ERK1/2(THR202/TYR204) HTRF assay; assay type: cell-based
Experimental: The NCI-H358 cells in culture medium were seeded in 96-well plates at a concentration of 40,000 cells/well and then put in a 37° C./5% CO2 cell incubator to incubate overnight. […] After 2 hours incubation in a 37° C./5% CO2 cell incubator, the assay medium in 96-well plates was removed, then 50 μL of 1× blocking reagent-supplemented lysis buffer (Cisbio) was added and the plates were incubated at 25° C. for 45 min with shaking. 10 μL of cell lysates from the 96-well plates were transferred to a 384-well plate (Greiner) containing 2.5 μL/well HTRF® pre-mixed antibodies (Cisbio 64AERPEH). Incubate 4 hours at 25° C. and then read HTRF signals on Tecan Spark multimode microplate reader. The data were analyzed using a 4-parameter logistic model to calculate IC50 values.

[2] = Mouse pharmacokinetic study; assay type: in vivo, Balb/c mouse
Experimental: The purpose of this study was to evaluate the pharmacokinetic properties of compounds in Balb/c mouse (♀) following single dose administration. The day before administration, mice were fasted overnight and free access to water. Six mice were needed for each compound and the six mice were divided into two groups (n=3/group), group A and group B. Mice in group A were treated with a single 3 mg/kg dose of compound (iv). Mice in group B were treated with a single 10 mg/kg dose of compound (po). For each mouse in group A, blood samples were collected at pre-dose, and at the time point of 0.083, 0.25, 0.5, 1, 2, 4, 6, 8 and 24 h post-dose. For each mouse in group B, blood samples were collected at pre-dose, and at the time point of 0.25, 0.5, 1, 2, 3, 4, 6, 8 and 24 h post-dose. Blood samples were placed on ice until centrifugation to obtain plasma samples. The plasma samples were stored at −80° C. until analysis. The concentration of compound in plasma samples was determined using a LC-MS/MS method.

[3] = Dog pharmacokinetic study; assay type: in vivo, beagle dog; details: for CL / VSS / AUC0-24h / Cmax / Oral BA (F %): beagle dog; for CL / VSS: 1 mg/kg, iv; for AUC0-24h / Cmax / Oral BA (F %) / AUC0-24 h relative to the control compound Amg-510: 3 mg/kg, po
Experimental: (§1) The purpose of this study was to evaluate the pharmacokinetic properties of compounds in beagle dog following single dose administration. The day before administration, dogs were fasted overnight and free access to water. Four beagle dogs were needed for each compound and the four dogs were divided into two groups, group A and group B (one male(♂) and one female (♀) in each group). Dogs in group A were treated with a single 1 mg/kg dose of compound (iv). Dogs in group B were treated with a single 3 mg/kg dose of compound (po). For dogs in group A, blood samples were collected at pre-dose, and at the time point of 0.083, 0.25, 0.5, 1, 2, 4, 6, 8 and 24 h post-dose. For dogs in group B, blood samples were collected at pre-dose, and at the time point of 0.25, 0.5, 1, 2, 4, 6, 8 and 24 h post-dose. Blood samples were placed on ice until centrifugation to obtain plasma samples. The plasma samples were stored at −80° C. until analysis. The concentration of compound in plasma samples was determined using a LC-MS/MS method.

[4] = Cynomolgus monkey pharmacokinetic study; assay type: in vivo; details: for CL / VSS / AUC0-24h / Cmax / Oral BA (F %): cynomolgus monkey; for CL / VSS: 1 mg/kg, iv; for AUC0-24h / Cmax / Oral BA (F %) / AUC0-24 h relative to the control compound Amg-510: 3 mg/kg, po
Experimental: as §1, with “cynomolgus monkey” for “beagle dog”, “monkeys” for “dogs”, “monkeys are” for “beagle dogs were”, “male (♂)” for “male(♂)”, “Monkeys” for “Dogs”

[5] = test system: NCI-H1373 (KRAS^G12C) xenograft; experiment: Efficacy in NCI-H1373 (KRAS G12C) xenograft model; assay type: in vivo, BALB/c nude mice; details: 10 mg/kg, QD
Experimental: NCI-H1373 (KRAS^G12C) cells (5.0E+06 cells) were injected subcutaneously into the right flank of female BALB/c nude mice (6-8 weeks) in a mixture with PBS and Matrigel (Corning) (PBS/Matrigel=1:1(v/v)). Mice were monitored daily and caliper measurements began when tumors became visible. Tumor volume was calculated by measuring two perpendicular diameters using the formula: (L*W^2)/2 in which L and W refer to the length and width tumor diameter respectively. When the average tumor volume reached 150-200 mm^3, mice were grouped randomly (n=6/group) and treated with compounds. Tumor volume and mice weight was measured twice a week during treatment (˜ 3 weeks). Tumor growth inhibition rates were calculated by TGI %=(1−(Vt−Vt0)/(Vc−Vc0))*100%, wherein Vc and Vt are the mean tumor volume of control and treated groups at the end of the study respectively, and Vc0 and Vt0 are the mean tumor volume of control and treated groups at the start respectively. The results are in the following Table 7 and FIG. 1: […]

[6] = Balb/c mouse (female), 3 mg/kg, iv
[7] = Balb/c mouse (female), 10 mg/kg, po

Structure (SMILES): C=CC(=O)N1CCN(c2nc(=O)n(-c3c(C)ccnc3C(C)C)c3nc(-c4c(N)c(F)c(F)c(F)c4F)c(F)cc23)[C@@H](C)C1 (atropisomer, axis not shown; (M)) [Compound 2-1, (M)-4-((S)-4-acryloyl-2-methylpiperazin-1-yl)-7-(2-amino-3,4,5,6-tetrafluorophenyl)-6-fluoro-1-(2-isopropyl-4-methylpyridin-3-yl)pyrido[2,3-d]pyrimidin-2(1H)-one]
- IC50 ([1]; 2 hours incubation, read-out: p-ERK IC50): 14.5 nM
- Inhibitory activity relative to the control compound Amg-510 ([1]; phospho-ERK1/2 HTRF assay): about 2 times
- CL [2, 6]: 38.9 mL/min/kg
- Vss [2, 6]: 1.28 L/kg
- AUC0-24h [2, 7]: 2618 ng·h/mL
- Cmax [2, 7]: 2440 ng/mL
- Oral BA (F %) [2, 7]: 58.9%
- Pharmacokinetic properties in words ([2]; mouse model, 3 mg/kg iv and 10 mg/kg po): good pharmacokinetic properties
- Pharmacokinetic properties in words ([3]; beagle dog model, compared with Amg-510): excellent pharmacokinetic properties
- CL ([3]; female): 4.40 mL/min/kg
- VSS ([3]; female): 0.295 L/kg
- AUC0-24h ([3]; female): 5022 ng·h/mL
- Cmax ([3]; female): 2330 ng/mL
- Oral BA (F %) ([3]; female): 44.3%
- CL ([3]; male): 4.15 mL/min/kg
- VSS ([3]; male): 0.255 L/kg
- AUC0-24h ([3]; male): 7308 ng·h/mL
- Cmax ([3]; male): 4080 ng/mL
- Oral BA (F %) ([3]; male): 60.9%
- AUC0-24 h relative to the control compound Amg-510 ([3]; female beagle dog): more than 12 times
- AUC0-24 h relative to the control compound Amg-510 ([3]; male beagle dog): more than 3 times
- CL ([4]; female): 8.20 mL/min/kg
- VSS ([4]; female): 0.507 L/kg
- AUC0-24h ([4]; female): 2494 ng·h/mL
- Cmax ([4]; female): 1060 ng/mL
- Oral BA (F %) ([4]; female): 41.2%
- CL ([4]; male): 8.26 mL/min/kg
- VSS ([4]; male): 0.555 L/kg
- AUC0-24h ([4]; male): 3253 ng·h/mL
- Cmax ([4]; male): 1580 ng/mL
- Oral BA (F %) ([4]; male): 54.1%
- AUC0-24 h relative to the control compound Amg-510 ([4]; female cynomolgus monkey): more than 10 times
- AUC0-24 h relative to the control compound Amg-510 ([4]; male cynomolgus monkey): more than 15 times
- Pharmacokinetic properties in words ([4]; monkey model): excellent pharmacokinetic properties
- Tumor response in words ([5]; Table 7 and FIG. 1): regression of the tumor has been observed
- Tumor volume at the end (Day 21) ([5]; female BALB/c nude mice, Day 21): 27 mm^3
- Tumor volume at the start ([5]; female BALB/c nude mice, baseline): 192 mm^3
- TGI % ([5]; female BALB/c nude mice, end of study (Day 21)): 110%
